Converted amounts (≈) assume the structure as drawn.
Assays:
[1] = Ninety-six-hour flow-through acute toxicity, sheepshead minnow; format: in vivo, Cyprinodon variagatus; conditions: 96 h flow-through, filtered seawater
Protocol: Ninety-six-hour flow-through acute toxicity studies of both cypermethrin and sigma-cypermethrin were conducted in the rainbow trout (Oncorhynchus mykiss) and in the sheepshead minnow (Cyprinodon variagatus) to determine the median-lethal-concentration (LC50) resulting from continuous exposure. For the rainbow trout the exposure medium was well water; for the sheepshead minnow, filtered seawater. Each group of 20 fish (10 per replicate aquarium) was exposed either to one of five concentrations of pyrethroid delivered in a diluter system in dimethylformamide (DMF), to 30 μL/L DMF in the exposure medium (solvent control), or to the exposure medium alone (control). Observations for mortality, morbidity, and other overt signs of toxicity were determined at prescribed intervals. Concentrations of the test materials were measured at the beginning and end of the exposure using a validated HPLC method. The cypermethrin isomer content (weight %) of the sigma-cypermethrin technical product used in this study was total isomers--88.2%, S-isomers--82%, cis/trans ratio--53/47.

rats [2] = experiment: 90-day feeding study; format: in vivo; conditions: for no observable effect level (NOEL): in diet, at least ninety days
Protocol: In the 90-day feeding study, conducted in compliance with EPA guideline 82-1, the compound under test was administered continuously in the diet to groups of rats for at least ninety days at concentrations of 0, 150, and 1500 ppm to groups of fifteen Sprague-Dawley rats for cypermethrin and 0, 10, 50, 150, 250, 500, and 900 ppm to groups of ten Fisher 344 rats for sigma-cypermethrin. (The rates for sigma-cypermethrin were lower, because it was expected to be more toxic than cypermethrin.) The cypermethrin isomer content (weight %) of the sigma-cypermethrin technical product used in this study was total isomers--88.2%, S-isomers--82%, cis/trans ratio--53/47. Individual body weight and food consumption values were recorded weekly. At termination, hematology and clinical chemistry determinations were conducted and organ weights were obtained for adrenals, brain, heart, kidneys, liver, and ovaries or testes. Histopathological examination of approximately 40 tissues was conducted on all animals in the control group and in the highest dose group in the cypermethrin study and in the highest two groups (500 and 900 ppm) in the sigma-cypermethrin study. In addition, histopathological examination was performed on the lungs, liver, and kidneys of animals in the mid-dose groups of both studies ([…] and 10, 50, 150, and 250 ppm for sigma-cypermethrin). An ophthalmic examination was conducted on all animals prior to initiation of treatment and prior to final sacrifice.

Heliothis sp. = experiment: Field trials on cotton, control of Heliothis sp.; format: in vivo, Heliothis virescens and Heliothis zea; conditions: for Yield: seed cotton per acre
Description: Plots were a minimum of 0.2 acres, and all applications were by commercial ground equipment with a minimum of 10 gallons total spray solution per acre. The cypermethrin isomer content (weight %) of the several sigma-cypermethrin technical products used in the field trials were as follows:
Analysis of the data was based on a seasonal average of multiple evaluations taken over a four to six week period (3-4 applications) in trials for control of Heliothis sp.

cabbage looper = experiment: Field trials on lettuce, control of cabbage looper; format: in vivo, Trichoplusia ni
Description: Field trials conducted on lettuce in California for evaluation of the control of cabbage looper consisted of a randomized complete block design of four replications per treatment. Applications were made to small plots with CO2 backpack sprayer using a minimum of 10 gallons per acre. Results were converted to percent control based on untreated check plots.

rats [3] = experiment: Multigeneration study; format: in vivo
Protocol: Multigeneration studies were conducted in compliance with EPA guideline 83-4 and provide information on reproductive parameters as well as neonatal morbidity and mortality for multiple generations. Wistar rats were fed diets, throughout the study, containing 0, 50, 150, and 750 ppm of cypermethrin (the top dose level was 1000 ppm for the first 12 weeks, but was lowered to 750 ppm for the remainder of the study owing to toxicity). Similarly, Sprague-Dawley rats were fed diets containing 0, 7.5, 25, 100, 375, and 750 ppm of sigma-cypermethrin. (Again, the rates are lower for sigma-cypermethrin, because it was expected to be more toxic.) The cypermethrin isomer content (weight %) of the sigma-cypermethrin technical product used in this study was total isomers--89.1%, S-isomers--82%, cis/trans ratio--51/49. […] Body weights and food consumption were recorded at regular intervals.
The breeding of parental and subsequent generations in each study was initiated with 30 females. In both studies appropriate dietary concentrations of test material were provided during cohabitation. Exposure of the parental males of each generation continued until a scheduled sacrifice following completion of the cohabitation periods, while exposure of parental females continued through to weaning of pups. Pups were weaned at postnatal day 28 in both studies.

[4] = tested on: tobacco budworm (Heliothis virescens); experiment: Foliar evaluation, tobacco budworm (TBW); format: in vivo; conditions: for LC50: Heliothis virescens, foliar, pinto beans, mortality at 48 hours
Protocol: (§1) Cypermethrin and sigma-cypermethrin were tested by foliar application at various concentrations in aqueous solutions containing 9.75% acetone and 0.25% octylphenoxypolyethoxyethanol. Insect species utilized included the cabbage looper (Trichoplusia ni), southern armyworm (Spodoptera eridania), Mexican bean beetle (Epilachna varivestis), tobacco budworm (Heliothis virescens), and corn earworm (Heliothis zea).
(§2) For all insects, pinto beans (Phaseolus vulgaris) plants were treated with the test solutions. The test solutions were applied with a sprayer to the upper and lower surfaces of the plant leaves to runoff. The plants were then allowed to dry and were severed at the base of the stem before being placed in cups. Ten second instar individuals of the appropriate insect species, except the tobacco budworm and corn earworm, were placed in each cup and the cup covered. Tests with the tobacco budworm and corn earworm used four replicates with each replicate containing five second instar insects. In all tests, mortality was read 48 hours later. The sigma-cypermethrin used in the foliar evaluations was the product of Example 2.

[5] = tested on: Mexican bean beetle (Epilachna varivestis); experiment: Foliar evaluation, Mexican bean beetle (MBB); format: in vivo; conditions: for LC50: Epilachna varivestis, foliar, pinto beans, mortality at 48 hours
Protocol: as §1, §2

[6] = tested on: southern armyworm (Spodoptera eridania); experiment: Foliar evaluation, southern armyworm (SAW); format: in vivo; conditions: for LC50: Spodoptera eridania, foliar, pinto beans, mortality at 48 hours
Protocol: as §1, §2

[7] = Year 1, 0.022 lb ai/A, seasonal mean of 3 trials (MS, LA)
[8] = Year 1, 0.03 lb ai/A, seasonal mean of 3 trials (MS, LA)
[9] = Year 2, 0.026 lb ai/A, seasonal mean of 4 trials (MS, LA)
[10] = Year 3, 0.013 lb ai/A, seasonal mean of 6-8 trials (MS, LA, AL, GA)
[11] = Year 3, 0.026 lb ai/A, seasonal mean of 6-8 trials (MS, LA, AL, GA)
[12] = Year 3, 0.039 lb ai/A, seasonal mean of 6-8 trials (MS, LA, AL, GA)
[13] = Year 1, 0.06 lb ai/A, seasonal mean of 3 trials (MS, LA)
[14] = Year 2, 0.06 lb ai/A, seasonal mean of 4 trials (MS, LA)
[15] = Year 3, 0.06 lb ai/A, seasonal mean of 6-8 trials (MS, LA, AL, GA)

Compound: CC1(C)C(C=C(Cl)Cl)C1C(=O)O[C@H](C#N)c1cccc(Oc2ccccc2)c1 (mixture of isomers) [sigma-cypermethrin, (S)(cyano)(3-phenoxyphenyl)methyl cis/trans-3-(2,2-dichloroethenyl)-2,2-dimethylcyclopropanecarboxylate]
- LC50 at 96 h [1]: 0.00237 µg/mL
- amount required to show an effect on rats relative to that expected from effect on insects (rats [2]; 90-day feeding): more than three times
- NOEL relative to the cypermethrin value (rats [2]; 90-day feeding, rats): more than one and a half times the cypermethrin value
- no observable effect level (NOEL) (rats [2]): 250 ppm
- % Hel. Live Larv. (Heliothis sp.; [7]): 10%
- % Hel. Sq. Dam. (Heliothis sp.; [7]): 9%
- Yield (Heliothis sp.; Year 1, 0.022 lb ai/A, 3 trials (MS, LA)): 2828 lb SC/A
- % Hel. Live Larv. (Heliothis sp.; [8]): 8%
- % Hel. Sq. Dam. (Heliothis sp.; [8]): 9%
- Yield (Heliothis sp.; Year 1, 0.03 lb ai/A, 3 trials (MS, LA)): 2795 lb SC/A
- % Hel. Live Larv. (Heliothis sp.; [9]): 3%
- % Hel. Sq. Dam. (Heliothis sp.; [9]): 3%
- % Hel. Live Larv. (Heliothis sp.; [10]): 6%
- % Hel. Sq. Dam. (Heliothis sp.; [10]): 3%
- Yield (Heliothis sp.; Year 3, 0.013 lb ai/A, 6-8 trials): 2818 lb SC/A
- % Hel. Live Larv. (Heliothis sp.; [11]): 5%
- % Hel. Sq. Dam. (Heliothis sp.; [11]): 4%
- Yield (Heliothis sp.; Year 3, 0.026 lb ai/A, 6-8 trials): 2778 lb SC/A
- % Hel. Live Larv. (Heliothis sp.; [12]): 5%
- % Hel. Sq. Dam. (Heliothis sp.; [12]): 3%
- Yield (Heliothis sp.; Year 3, 0.039 lb ai/A, 6-8 trials): 2692 lb SC/A
- % Cabbage Looper Control (cabbage looper; Year 1, 0.026 lb ai/A, 3 DAT, average of 2 trials (CA)): 83%
- % Cabbage Looper Control (cabbage looper; Year 1, 0.026 lb ai/A, 7 DAT, average of 2 trials (CA)): 90%
- % Cabbage Looper Control (cabbage looper; Year 2, 0.013 lb ai/A, 3 DAT, 1 trial (CA)): 98%
- % Cabbage Looper Control (cabbage looper; Year 2, 0.013 lb ai/A, 7 DAT, 1 trial (CA)): 71%
- % Cabbage Looper Control (cabbage looper; Year 2, 0.026 lb ai/A, 3 DAT, 1 trial (CA)): 98%
- % Cabbage Looper Control (cabbage looper; Year 2, 0.026 lb ai/A, 7 DAT, 1 trial (CA)): 91%
- % Cabbage Looper Control (cabbage looper; Year 2, 0.039 lb ai/A, 3 DAT, 1 trial (CA)): 100%
- % Cabbage Looper Control (cabbage looper; Year 2, 0.039 lb ai/A, 7 DAT, 1 trial (CA)): 98%
- mortality of F1 generation litters (rats [3]; 750 ppm in diet, 28-day lactation and first week postweaning): excessive mortality
- NOEL relative to that of cypermethrin (rats [3]; multigeneration): twice that of cypermethrin
- amount required to show an effect on rats relative to that expected from effect on insects (rats [3]; multigeneration): four times
- LC50 [4]: 4.4 µg/mL
- Relative Potency ([4]; vs cypermethrin, TBW): 1.7
- LC50 [5]: 0.3 µg/mL
- effectiveness relative to cypermethrin ([5]; the only Coleoptera tested, laboratory): four times as effective
- Relative Potency ([5]; vs cypermethrin, MBB): 4.0
- LC50 [6]: 1.8 µg/mL
- Relative Potency ([6]; vs cypermethrin, SAW): 2.3

Compound: CC1(C)C(C=C(Cl)Cl)C1C(=O)OC(C#N)c1cccc(Oc2ccccc2)c1 (stereo not shown) [cypermethrin, (cyano)(3-phenoxyphenyl)methyl 3-(2,2-dichloroethenyl)-2,2-dimethylcyclopropanecarboxylate, reference compound]
- LC50 at 96 h [1]: 0.00388 µg/mL (≈ 0.00932 µM)
- no observable effect level (NOEL) (rats [2]): 150 ppm
- % Hel. Live Larv. (Heliothis sp.; [13]): 9%
- % Hel. Sq. Dam. (Heliothis sp.; [13]): 9%
- Yield (Heliothis sp.; Year 1, 0.06 lb ai/A, 3 trials (MS, LA)): 2641 lb SC/A
- % Hel. Live Larv. (Heliothis sp.; [14]): 2%
- % Hel. Sq. Dam. (Heliothis sp.; [14]): 3%
- % Hel. Live Larv. (Heliothis sp.; [15]): 4%
- % Hel. Sq. Dam. (Heliothis sp.; [15]): 3%
- Yield (Heliothis sp.; Year 3, 0.06 lb ai/A, 6-8 trials): 2675 lb SC/A
- % Cabbage Looper Control (cabbage looper; Year 1, 0.06 lb ai/A, 3 DAT, average of 2 trials (CA)): 61%
- % Cabbage Looper Control (cabbage looper; Year 1, 0.06 lb ai/A, 7 DAT, average of 2 trials (CA)): 78%
- % Cabbage Looper Control (cabbage looper; Year 2, 0.06 lb ai/A, 3 DAT, 1 trial (CA)): 94%
- % Cabbage Looper Control (cabbage looper; Year 2, 0.06 lb ai/A, 7 DAT, 1 trial (CA)): 81%
- toxicity at top dose level (rats [3]; 1000 ppm in diet, first 12 weeks, lowered to 750 ppm): toxicity
- NOEL (rats [3]; in diet, multiple generations): 50 ppm
- LC50 [4]: 7.3 µg/mL (≈ 17.5 µM)
- LC50 [5]: 1.2 µg/mL (≈ 2.88 µM)
- LC50 [6]: 4.2 µg/mL (≈ 10.1 µM)
